Experimental data as given in patent US20240307375A1, “PHARMACEUTICAL COMPOSITION FOR PREVENTING AND/OR TREATING KIDNEY INJURY, AND AUTOPHAGY ACTIVATOR” (OSAKA UNIVERSITY, priority 2021, published 2024).

How the values were obtained:
[1] = tested on: autophagy flux (GFP-LC3 dots per proximal tubule); assay: Autophagy flux in kidneys of GFP-LC3 transgenic mice after cisplatin, with or without chloroquine; type: in vivo
Protocol: The test animals were 8-week-old male autophagy-monitoring mice (GFP-LC3 transgenic mice). The mice had free access to water and standard mouse chow.
The test compound (compound 011) was suspended in PBS to prepare a sample liquid.
Six hours before anesthetization of the mice, a chloroquine solution was administered intraperitoneally as a lysosomal inhibitor at 50 μg/g body weight. Separately, a group in which the chloroquine solution was not administered was also prepared. The chloroquine solution was prepared by dissolving chloroquine (Sigma-Aldrich) in distilled water at a concentration of 5 mg/mL.
The autophagy flux was evaluated by quantifying GFP-LC3 dots (GFP-positive dots).
The kidney sections were immunostained with LRP2/Megalin (red), which is a marker for proximal tubular cells, and contrast-stained with DAPI (blue).
The number of GFP-LC3 dots (green) per proximal tubule in each group (n=5) was quantified in 10 high-magnification fields (600×), and the average values were used for evaluation.

[2] = tested on: p53-positive cells / p62-positive dots (DNA damage, autophagy substrate); assay: p53 and p62 immunostaining of renal cortex after cisplatin administration; type: in vivo, mice; conditions: cisplatin 15 mg/kg i.p. plus test compound 10 mg/kg orally
Protocol: The kidneys of mice were collected as in Test Example 1. The kidneys were subjected to autoclaving at 120° C. for 10 minutes in a […] citrate buffer (pH of 6.0) for […] and to blocking with 1.5% bovine serum albumin in PBS for 60 minutes. Subsequently, paraffin embedding was performed to prepare section samples of renal cortex of the four groups.
The sections were incubated overnight at 4° C. with p53 or p62 primary antibodies.
For each group (n=2 to 4), the number of p53-positive cells or p62-positive dots were counted in fields at a magnification of 200× (p53) or 400× (p62) to calculate the average values.

A549 cells = assay: LC3-II Western blotting in A549 cells with or without Bafilomycin A1; type: cell-based, human; conditions: 10 μM test compound, 6 hours, Bafilomycin A1 250 nM
Protocol: A549 cells (1.0×10^5 cells/well), i.e., human lung tumor cells, were seeded in a 6-well plate containing DMEM medium and cultured for 1 day, and the cells were washed with PBS.
A DMEM medium containing Bafilomycin Al (final concentration: 250 nM; also referred to as “Baf”) (Baf(+)) and a DMEM medium not containing Baf (Baf(−)) were prepared. Additionally, a Baf-containing DMEM medium with DMSO or Compound 011 (the test compound) and a Baf-free DMEM medium with DMSO or Compound 011 (the test compound) were also prepared, thus preparing a total of six different media. The final concentration of DMSO was 0.1% and the final concentration of the test compound was 10 μM. Separately, an Earle's balanced salt solution (EBSS; starvation) containing Baf and an EBSS not containing Baf were also prepared. 3 mL of one of the six types of media and two types of EBSSs was added to each well containing washed cells, followed by culturing for 6 hours. After washing the cells three times with PBS, RIPA buffer was added at 4° C., and the cells were allowed to stand on ice for 30 minute. The cells were then quickly and carefully collected from the wells. After the cells were collected, centrifugation (15000 rpm, 4° C., 30 min) was performed, and the supernatant was collected to obtain a protein solution. […]

[3] = tested on: Kidney Injury Induced by Cisplatin Administration; assay: Plasma creatinine and urea nitrogen in cisplatin-treated mice; type: in vivo
Protocol: Wild-type male mice were used as test animals. […] The same amount of physiological saline was intraperitoneally administered to the control group. […] The same amount of PBS was orally administered to the control group. […] Plasma was obtained from the blood collected from the mice to measure the creatinine concentration and the urea nitrogen concentration (n=2 to 4 for each group). The creatinine concentration was measured by using a BioAssay Systems' Creatinine Assay Kit (DICT-500), and the urea nitrogen concentration was measured by using a Wako BUN-test. […] Additionally, in FIG. 3, “Cre” represents the creatinine concentration and “BUN” represents the serum urea nitrogen concentration.

[4] = tested on: Kidney Injury Induced by Cisplatin Administration; assay: Cisplatin-induced kidney injury in mice, PAS histology of renal cortex; type: in vivo
Protocol: Wild-type male mice were used as test animals. The mice had free access to water and standard mouse chow. […] The same amount of physiological saline was intraperitoneally administered to the control group. A sample liquid was prepared by suspending Compound 011 (test compound) in PBS. […] The same amount of PBS was orally administered to the control group. […] Additionally, the mice that were not administered with cisplatin were treated in a similar manner, and the blood and kidneys were collected. The mice were thus divided into four groups. The mice were perfused transcardially with PBS (pH of 7.4). The collected kidneys were sliced, post-fixed in 4% PFA (paraformaldehyde), and embedded in paraffin or frozen in OCT compound to obtain section samples of renal cortex. The section samples of the four groups were stained with PAS (Periodic acid-Schiff) and observed under an optical microscope (400×) (FIG. 1). The renal tubular injury was quantitatively evaluated using PAS-stained section samples. […] The renal tubular injury was defined to be cellular necrosis, tubular dilatation, and cast formation.

[5] = cisplatin 15 mg/kg i.p. plus test compound 10 mg/kg orally, effect on cisplatin-induced increase
[6] = test compound 10 mg/kg orally, no cisplatin

Row | Structure (SMILES) | number of GFP-LC3 dots per proximal tubule ([1]; cisplatin 15 mg/kg i.p. alone, without chloroquine) | number of GFP-LC3 dots per proximal tubule ([1]; cisplatin 15 mg/kg i.p. plus chloroquine on the second day, no test compound) | number of p53-positive cells [2] | number of p62-positive dots [2] | LC3-II protein level with Baf treatment relative to without Baf treatment (A549 cells) | degree of the LC3-II increase with Baf treatment compared with starvation (EBSS) (A549 cells) | plasma creatinine concentration [3, 5] | serum urea nitrogen (BUN) concentration [3, 5] | plasma creatinine concentration [3, 6] | serum urea nitrogen (BUN) concentration [3, 6] | renal tubular injury (PAS-stained renal cortex sections) ([4]; cisplatin 15 mg/kg i.p. plus test compound 10 mg/kg orally for 3 consecutive days, 3 days after cisplatin) | score of renal tubular injury (PAS injury score) ([4]; cisplatin 15 mg/kg i.p. plus test compound 10 mg/kg orally, 10-scale grade) | change in PAS-stained renal cortex versus vehicle administration group ([4]; test compound 10 mg/kg orally for 3 days, no cisplatin) | number of GFP-LC3 dots per proximal tubule ([1]; cisplatin 15 mg/kg i.p. plus test compound 10 mg/kg orally, 2 days after cisplatin, without chloroquine) | number of GFP-LC3 dots per proximal tubule ([1]; cisplatin plus test compound 10 mg/kg orally plus chloroquine 50 μg/g i.p. 6 hours before anesthetization)
1 | N.N.[Cl][Pt][Cl] [cisplatin, reference compound] | increased GFP-LC3 dots | no increase in GFP-LC3 dots |  |  |  |  |  |  |  |  |  |  |  |  | 
2 | O=C(O)c1cnc(N2CCN(c3noc4cccc(C(F)(F)F)c34)CC2)c(Cl)c1 [Compound 011, 5-Chloro-6-(4-(4-(trifluoromethyl)benzo[d]isoxazol-3-yl)piperazin-1-yl)nicotinic acid] |  |  | clearly reduced | clearly reduced | significant increase in LC3-II with the Baf treatment | comparable to that of starvation | clearly suppressed | clearly suppressed | little or no change | little or no change | clearly attenuated renal tubular injury caused by cisplatin | clearly attenuated | no apparent change | a decrease in GFP-LC3 dots | significantly increased
